Data on 22 compounds can be found in patent US9321756B2, “Azole compounds as PIM inhibitors” (priority 2011, dated 2016).

pIC50: −log10 of the molar value. Like-named read-outs stand apart in the source and are kept apart here. Some results are limits rather than exact numbers.

For assay [1], the target named is full length recombinant Pim-1 (Homo sapiens (Human), UniProt P11309). The experiment in a line: Pim enzyme assay (HTRF, phosphorylation of biotinylated-BAD (S112) peptide), Pim-1. It counts as biochemical. For orientation: TR-FRET usually uses a lanthanide donor and a delayed reading to cut background.
Chain of full length recombinant Pim-1 (P11309 whole entry): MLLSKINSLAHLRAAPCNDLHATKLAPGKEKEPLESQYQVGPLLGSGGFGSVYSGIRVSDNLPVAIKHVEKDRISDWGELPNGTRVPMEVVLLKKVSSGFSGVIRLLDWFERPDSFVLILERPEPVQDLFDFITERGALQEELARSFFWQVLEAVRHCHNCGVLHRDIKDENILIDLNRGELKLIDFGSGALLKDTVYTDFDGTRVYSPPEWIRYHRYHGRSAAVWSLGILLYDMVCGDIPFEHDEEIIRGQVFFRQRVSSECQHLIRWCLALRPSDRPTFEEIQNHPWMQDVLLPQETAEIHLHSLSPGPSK
The target in assay [2] is full length recombinant Pim-2 (Homo sapiens (Human), UniProt Q9P1W9). The experiment in a line: Pim enzyme assay (HTRF, phosphorylation of biotinylated-BAD (S112) peptide), Pim-2. Format: biochemical. The settings on record: Pim-2 enzyme assay; read-out: Pim2_IC50.
Chain of full length recombinant Pim-2 (Q9P1W9 whole entry): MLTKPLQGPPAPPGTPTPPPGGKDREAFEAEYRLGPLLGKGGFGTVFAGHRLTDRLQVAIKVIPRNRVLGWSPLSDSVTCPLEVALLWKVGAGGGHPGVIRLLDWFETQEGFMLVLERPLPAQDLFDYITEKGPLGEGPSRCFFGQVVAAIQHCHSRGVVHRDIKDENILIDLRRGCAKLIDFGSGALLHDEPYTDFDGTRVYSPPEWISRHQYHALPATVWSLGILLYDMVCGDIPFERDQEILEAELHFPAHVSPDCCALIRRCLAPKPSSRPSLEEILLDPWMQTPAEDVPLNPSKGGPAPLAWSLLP
Assay [3] deals with full length recombinant Pim-3 (Homo sapiens (Human), UniProt Q86V86). The experiment in a line: Pim enzyme assay (HTRF, phosphorylation of biotinylated-BAD (S112) peptide), Pim-3. Format: biochemical. As to conditions: Pim-3 enzyme assay; read-out: Pim3 IC50. The method in brief: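 IC50 values were fitted with a 4-parameter logistic model to percent-of-control HTRF signal (Eu anti-phospho-BAD S112 antibody/streptavidin-APC). Reactions used full-length Pim-3 and biotin-BAD (S112) peptide, ran 1 h 30 min at RT (22 °C) in Hepes pH 7.0 buffer with BSA and DTT, and were stopped by 3 mM EDTA.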

Assay [4] concerns Pim-1 stably transfected U2OS human osteogenic sarcoma line. The experiment in a line: Pim cell assay U2OS (phospho-BAD normalized against total BAD), Pim-1 transfected. It counts as cell-based. As to conditions: Homo sapiens, U2OS.
In assay [5] the test system is Pim-2 stably transfected U2OS human osteogenic sarcoma line. The experiment in a line: Pim cell assay U2OS (phospho-BAD normalized against total BAD), Pim-2 transfected. It counts as cell-based. The settings on record: Homo sapiens, read-out: U2OS Pim2_Cell_IC50.
Setting [6] is: Pim-1 enzyme assay, read-out: Pim_1_IC50.
The mark [7] stands for this setting: read-out: U2OS Pim1_Cell_IC50, U2OS cells, Pim-1 transfected.

On to `Cc1cn(-c2cccc(-c3c[nH]c4ccc(-c5nnc(N)s5)cc34)n2)cn1` [Example 155, 5-(3-(6-(4-methyl-1H-imidazol-1-yl)-2-pyridinyl)-1H-indol-5-yl)-1,3-4-thiadiazol-2-amine], for which the pIC50 in assay [1] (setting [6]) is 8.35; in assay [2] it was 8.65; in assay [3], 9.37; in assay [4] (setting [7]), 6.59; in assay [5] (U2OS cells, Pim-2 transfected) it was below 4.50.

Turning to `Nc1nnc(-c2ccc3[nH]cc(-c4cncc(N5CCOCC5)n4)c3c2)s1` [Example 156, 5-(3-(6-(4-morpholinyl)-2-pyrazinyl)-1H-indol-5-yl)-1,3,4-thiadiazol-2-amine], the pIC50 in assay [1] (setting [6]) was 8.25; in assay [2], 7.91; in assay [3], 8.36; in assay [4] (setting [7]), 6.79; in assay [5] (U2OS cells, Pim-2 transfected), 5.72.

As to `CN(C)c1cncc(-c2c[nH]c3ccc(-c4nnc(N)s4)cc23)n1` [Example 158, 6-(5-(5-amino-1,3,4-thiadiazol-2-yl)-1H-indol-3-yl)-N,N-dimethyl-2-pyrazinamine], the pIC50 in assay [1] (setting [6]) was 8.09; in assay [2], 7.55; in assay [3], 8.41; in assay [4] (setting [7]), 6.88; in assay [5] (U2OS cells, Pim-2 transfected), 5.52.

With `CC(C)Oc1cncc(-c2c[nH]c3ccc(-c4nnc(N)s4)cc23)n1` [Example 159, 5-(3-(6-(1-methylethoxy)-2-pyrazinyl)-1H-indol-5-yl)-1,3,4-thiadiazol-2-amine], the pIC50 is 8.09 in assay [1] (read-out: Pim_1_IC50); 7.78 in assay [2]; 8.52 in assay [3]; 7.04 in assay [4] (setting [7]); 5.65 in assay [5] (U2OS cells, Pim-2 transfected).

For `Nc1nnc(-c2ccc3[nH]cc(-c4cncc(OC5CCCC5)n4)c3c2)s1` [Example 160, 5-(3-(6-(cyclopentyloxy)-2-pyrazinyl)-1H-indol-5-yl)-1,3,4-thiadiazol-2-amine], the pIC50 in assay [1] (setting [6]) is 7.98; in assay [2], 7.61; in assay [3], 7.97; in assay [4] (setting [7]) it was 6.75; in assay [5] (U2OS cells, Pim-2 transfected), 5.18.

Take `CC1CCN(c2cncc(-c3c[nH]c4ccc(-c5nnc(N)s5)cc34)n2)CC1` [Example 162, 5-(3-(6-(4-methyl-1-piperidinyl)-2-pyrazinyl)-1H-indol-5-yl)-1,3,4-thiadiazol-2-amine]: the pIC50 in assay [1] (setting [6]) is 7.90; in assay [2], 7.31; in assay [3], 8.07; in assay [4] (read-out: U2OS Pim1_Cell_IC50), 6.67; in assay [5] (U2OS cells, Pim-2 transfected), 5.25.

As to `CCOc1cccc(-c2c[nH]c3ccc(-c4nnc(N)s4)cc23)n1` [Example 164, 5-(3-(6-ethoxy-2-pyridinyl)-1H-indol-5-yl)-1,3,4-thiadiazol-2-amine], the pIC50 in assay [1] (setting [6]) is 7.83; in assay [2], 7.67; in assay [3], 8.49; in assay [4] (read-out: U2OS Pim1_Cell_IC50), 6.85; in assay [5] (U2OS cells, Pim-2 transfected), 5.43.

In the case of `CCCOc1cccc(-c2c[nH]c3ccc(-c4nnc(N)s4)cc23)n1` [Example 165, 5-(3-(6-propoxy-2-pyridinyl)-1H-indol-5-yl)-1,3,4-thiadiazol-2-amine], the pIC50 in assay [1] (setting [6]) is 7.82; in assay [2], 7.45; in assay [3], 8.24; in assay [4] (read-out: U2OS Pim1_Cell_IC50), 6.64; in assay [5] (U2OS cells, Pim-2 transfected), 5.37.

`Nc1nnc(-c2ccc3[nH]cc(-c4cccc(N5CCCC5=O)n4)c3c2)s1` [Example 166, 1-(6-(5-(5-amino-1,3,4-thiadiazol-2-yl)-1H-indol-3-yl)-2-pyridinyl)-2-pyrrolidinone]: the pIC50 is 7.74 in assay [1] (setting [6]); 7.42 in assay [2]; 8.27 in assay [3]; below 4.50 in assay [4] (read-out: U2OS Pim1_Cell_IC50); below 4.50 in assay [5] (U2OS cells, Pim-2 transfected).

On to `COc1ccc(-c2c[nH]c3ccc(-c4nnc(N)s4)cc23)nc1OC` [Example 168, 5-(3-(5,6-dimethoxy-2-pyridinyl)-1H-indol-5-yl)-1,3,4-thiadiazol-2-amine], for which the pIC50 in assay [1] (setting [6]) is 7.64; in assay [2], 7.36; in assay [3], 8.20; in assay [4] (read-out: U2OS Pim1_Cell_IC50) it was 6.95; in assay [5] (U2OS cells, Pim-2 transfected) it was below 5.50.

In the case of `Cc1nccn1-c1cccc(-c2c[nH]c3ccc(-c4nnc(N)s4)cc23)n1` [Example 169, 5-(3-(6-(2-methyl-1H-imidazol-1-yl)-2-pyridinyl)-1H-indol-5-yl)-1,3,4-thiadiazol-2-amine], the pIC50 in assay [1] (setting [6]) was 7.58; in assay [2], 7.62; in assay [3], 7.93; in assay [4] (setting [7]), 5.74; in assay [5] (U2OS cells, Pim-2 transfected), below 4.50.

For the compound `Cc1cn(-c2nc(-c3c[nH]c4ccc(-c5nnc(N)s5)cc34)cs2)cn1` [Example 170, 5-(3-(2-(4-methyl-1H-imidazol-1-yl)-1,3-thiazol-4-yl)-1H-indol-5-yl)-1,3,4-thiadiazol-2-amine], the pIC50 in assay [1] (setting [6]) is 7.46; in assay [2], 7.00; in assay [3] it was 8.02; in assay [4] (read-out: U2OS Pim1_Cell_IC50), 6.06; in assay [5] (U2OS cells, Pim-2 transfected), below 4.50.

`Nc1nnc(-c2ccc3[nH]cc(-c4ccc5cn[nH]c5c4)c3c2)s1` [Example 171, 5-(3-(1H-indazol-6-yl)-1H-indol-5-yl)-1,3,4-thiadiazol-2-amine]: the pIC50 in assay [1] (setting [6]) was 7.44; in assay [2] it was 7.23; in assay [3], 7.86; in assay [4] (setting [7]) it was 5.58; in assay [5] (U2OS cells, Pim-2 transfected), below 4.50.

As to `Nc1nnc(-c2ccc3[nH]cc(-c4csc(-n5ccccc5=O)n4)c3c2)s1` [Example 177, 1-(4-(5-(5-amino-1,3,4-thiadiazol-2-yl)-1H-indol-3-yl)-1,3-thiazol-2-yl)-2(1H)-pyridinone], the pIC50 in assay [1] (setting [6]) was 7.34; in assay [2], 7.04; in assay [3] it was 7.52; in assay [4] (read-out: U2OS Pim1_Cell_IC50), 6.27; in assay [5] (U2OS cells, Pim-2 transfected) it was below 4.50.

In the case of `Cc1ccn(-c2cccc(-c3c[nH]c4ccc(-c5nnc(N)s5)cc34)n2)n1` [Example 179, 5-(3-(6-(3-methyl-1H-pyrazol-1-yl)-2-pyridinyl)-1H-indol-5-yl)-1,3,4-thiadiazol-2-amine], the pIC50 is 7.11 in assay [1] (setting [6]); 7.19 in assay [2]; 7.62 in assay [3]; 6.09 in assay [4] (read-out: U2OS Pim1_Cell_IC50); below 4.50 in assay [5] (U2OS cells, Pim-2 transfected).

`Nc1nnc(-c2ccc3[nH]cc(-c4cccc(-n5cccn5)n4)c3c2)s1` [Example 180, 5-(3-(6-(1H-pyrazol-1-yl)-2-pyridinyl)-1H-indol-5-yl)-1,3,4-thiadiazol-2-amine]: the pIC50 was 7.09 in assay [1] (setting [6]); 7.31 in assay [2]; 7.57 in assay [3]; 6.03 in assay [4] (read-out: U2OS Pim1_Cell_IC50); 5.26 in assay [5] (U2OS cells, Pim-2 transfected).

As to `Nc1nnc(-c2ccc3[nH]cc(-c4cncc(N5CCCCC5)n4)c3c2)s1` [Example 198, 5-(3-(6-(1-piperidinyl)-2-pyrazinyl)-1H-indol-5-yl)-1,3,4-thiadiazol-2-amine], the pIC50 was 8.60 in assay [1] (setting [6]); 7.96 in assay [2]; 8.56 in assay [3]; 7.43 in assay [4] (setting [7]); 5.77 in assay [5] (U2OS cells, Pim-2 transfected).

In the case of `COc1cc(-c2c[nH]c3ccc(-c4nnc(N)s4)cc23)nc(OC(C)C)n1` [Example 200, 5-(3-(6-methoxy-2-(1-methylethoxy)-4-pyrimidinyl)-1H-indol-5-yl)-1,3,4-thiadiazol-2-amine], the pIC50 in assay [1] (setting [6]) is 7.81; in assay [2] it was 7.52; in assay [3], 8.66; in assay [4] (read-out: U2OS Pim1_Cell_IC50), 6.95; in assay [5] (U2OS cells, Pim-2 transfected), 5.42.

In the case of `CC1(C)CNc2ncc(-c3c[nH]c4ccc(-c5nnc(N)s5)cc34)nc21` [Example 201, 5-(3-(7,7-dimethyl-6,7-dihydro-5H-pyrrolo[2,3-b]pyrazin-2-yl)-1H-indol-5-yl)-1,3,4-thiadiazol-2-amine], the pIC50 in assay [1] (setting [6]) was 7.75; in assay [2] it was 7.49; in assay [3] it was 8.31; in assay [4] (read-out: U2OS Pim1_Cell_IC50), 6.41; in assay [5] (U2OS cells, Pim-2 transfected), 5.42.

In the case of `COc1cc(-c2c[nH]c3ccc(-c4nnc(N)s4)cc23)nc(OC)n1` [Example 202, 5-(3-(2,6-dimethoxy-4-pyrimidinyl)-1H-indol-5-yl)-1,3,4-thiadiazol-2-amine], the pIC50 in assay [1] was 7.14; in assay [2], 7.06; in assay [3] it was 7.95; in assay [4] (read-out: U2OS Pim1_Cell_IC50), 6.62; in assay [5] (U2OS), below 4.50.

In the case of `CC(C)Nc1cccc(-c2c[nH]c3ccc(-c4nnc(N)s4)cc23)n1` [Example 203, 6-(5-(5-amino-1,3,4-thiadiazol-2-yl)-1H-indol-3-yl)-N-(1-methylethyl)-2-pyridinamine], the pIC50 in assay [1] (setting [6]) was 7.68; in assay [2] it was 7.43; in assay [3], 8.27; in assay [4] (setting [7]) it was 6.42; in assay [5] (U2OS cells, Pim-2 transfected), 5.66.

`Nc1nnc(-c2ccc3[nH]cc(-c4cccc(NCC5CC5)n4)c3c2)s1` [Example 204, 6-(5-(5-amino-1,3,4-thiadiazol-2-yl)-1H-indol-3-yl)-N-(cyclopropylmethyl)-2-pyridinamine]: the pIC50 was 7.08 in assay [1] (setting [6]); 6.84 in assay [2]; 7.74 in assay [3]; 6.33 in assay [4] (read-out: U2OS Pim1_Cell_IC50); 5.11 in assay [5] (U2OS cells, Pim-2 transfected).
